± gives the standard deviation of the averaged measurements.
Tests used:
MLN-4924 = compound: NS(=O)(=O)OC[C@@H]1C[C@@H](n2ccc3c(N[C@H]4CCc5ccccc54)ncnc32)C[C@@H]1O [MLN-4924]; test: surviving fraction relative to DMSO-only wells; higher = less growth inhibition; conditions: exposure time: 5 days
In short: (§1)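 Lines were retained only if, across three screens, replicate Pearson r was >0.7 and median Z' was >0.3. Viability was measured as CellTiter-Glo luminescence and reported as surviving fraction relative to the median of DMSO-only wells. Readings followed 10 minutes at room temperature, after log-phase tumour cells seeded at 250–500 per well in 384-well plates had been exposed, from 24 hours after seeding, continuously for five days to inhibitors at 0.5, 1, 5, 10, 50, 100, 500 and 1000 nM.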

TEMOZOLOMIDE = compound: Cn1nnc2c(C(N)=O)ncn2c1=O [TEMOZOLOMIDE]; test: as above; conditions: exposure time: 5 days
In short: as §1

Test System	surviving fraction (MLN-4924; 0.5 nM)	surviving fraction (MLN-4924; 1 nM)	surviving fraction (MLN-4924; 5 nM)	surviving fraction (MLN-4924; 10 nM)	surviving fraction (MLN-4924; 50 nM)	surviving fraction (MLN-4924; 100 nM)	surviving fraction (MLN-4924; 500 nM)	surviving fraction (MLN-4924; 1000 nM)	surviving fraction (TEMOZOLOMIDE; 0.5 nM)	surviving fraction (TEMOZOLOMIDE; 1 nM)	surviving fraction (TEMOZOLOMIDE; 5 nM)	surviving fraction (TEMOZOLOMIDE; 10 nM)	surviving fraction (TEMOZOLOMIDE; 50 nM)	surviving fraction (TEMOZOLOMIDE; 100 nM)	surviving fraction (TEMOZOLOMIDE; 500 nM)	surviving fraction (TEMOZOLOMIDE; 1000 nM)
SCC47 HEADNECK	1.12 ± 0.028	1.1 ± 0.11	1.06 ± 0.016	1.07 ± 0.022	0.717 ± 0.053	0.51 ± 0.05	0.307 ± 0.025	0.263 ± 0.024	0.956 ± 0.035	1.06 ± 0.074	1.1 ± 0.035	1.12 ± 0.085	1.04 ± 0.11	1.22 ± 0.14	1.1 ± 0.06	1.14 ± 0.17
MG63 BONE	1.03 ± 0.057	1.02 ± 0.046	1.07 ± 0.042	1.13 ± 0.054	0.4 ± 0.058	0.031 ± 0.0046	0.0287 ± 0.005	0.0287 ± 0.0023	0.964 ± 0.016	1.01 ± 0.036	1.03 ± 0.026	1.09 ± 0.035	1.01 ± 0.032	1.1 ± 0.047	0.997 ± 0.031	1.02 ± 0.032
CAL72 BONE	1.02 ± 0.11	0.996 ± 0.12	1.02 ± 0.1	1.04 ± 0.068	1.1 ± 0.031	0.933 ± 0.085	0.299 ± 0.063	0.154 ± 0.042	1.04 ± 0.056	0.996 ± 0.098	1.04 ± 0.083	1.02 ± 0.081	1.1 ± 0.05	1.09 ± 0.087	1.076 ± 0.0011	1.07 ± 0.094
CME SYNOVIAL	1.19 ± 0.11	1.25 ± 0.15	1.32 ± 0.19	1.27 ± 0.07	0.692 ± 0.1	0.271 ± 0.026	0.273 ± 0.019	0.304 ± 0.023	1.31 ± 0.12	1.21 ± 0.12	1.24 ± 0.033	1.33 ± 0.18	1.34 ± 0.12	1.46 ± 0.064	1.34 ± 0.027	1.39 ± 0.065
93VU HEADNECK	1.01 ± 0.083	1.11 ± 0.068	1.09 ± 0.047	1.1 ± 0.051	0.828 ± 0.079	0.533 ± 0.034	0.166 ± 0.015	0.133 ± 0.0059	1.02 ± 0.1	1.04 ± 0.015	1.09 ± 0.057	1.03 ± 0.14	1.11 ± 0.022	1.17 ± 0.12	1 ± 0.11	1.02 ± 0.081
143B BONE	1.03 ± 0.023	1.01 ± 0.034	1.04 ± 0.033	1.018 ± 0.0099	0.961 ± 0.042	0.699 ± 0.028	0.062 ± 0.0042	0.033 ± 0.0028	0.914 ± 0.096	1.0035 ± 0.00071	0.961 ± 0.047	1 ± 0.033	1.01 ± 0.013	1.02 ± 0.023	0.965 ± 0.03	1.04 ± 0.019
SUM149 BREAST	1.08 ± 0.13	1.01 ± 0.16	1.09 ± 0.13	1.056 ± 0.0092	0.86 ± 0.073	0.555 ± 0.046	0.0803 ± 0.017	0.066 ± 0.003	1.06 ± 0.11	1.1 ± 0.067	1.1 ± 0.029	1.1 ± 0.12	1.01 ± 0.056	1.16 ± 0.12	1.1 ± 0.096	1.03 ± 0.022
SCC90 HEADNECK	1.09 ± 0.27	1.04 ± 0.042	1.04 ± 0.099	0.541 ± 0.0053	0.212 ± 0.033	0.167 ± 0.01	0.144 ± 0.018	0.16 ± 0.032	0.973 ± 0.039	1.16 ± 0.11	1.05 ± 0.053	1.02 ± 0.062	1.08 ± 0.073	1.06 ± 0.2	1.1 ± 0.088	1.01 ± 0.057
S68 BREAST	0.837 ± 0.21	0.964 ± 0.11	0.764 ± 0.18	1.07 ± 0.19	0.6 ± 0.074	0.326 ± 0.05	0.172 ± 0.024	0.105 ± 0.007	0.996 ± 0.22	1.07 ± 0.034	1.08 ± 0.18	1.06 ± 0.12	1.04 ± 0.044	1.09 ± 0.25	1.05 ± 0.078	1.29 ± 0.24
U2OS BONE	1.028 ± 0.0045	1.01 ± 0.015	0.988 ± 0.04	1.03 ± 0.049	1.04 ± 0.036	0.859 ± 0.022	0.403 ± 0.028	0.176 ± 0.015	0.988 ± 0.017	0.988 ± 0.034	1.04 ± 0.022	1.02 ± 0.045	1.06 ± 0.029	1.06 ± 0.023	1.02 ± 0.028	1.01 ± 0.023
MCF7 BREAST	0.889 ± 0.029	0.9226 ± 0.0022	0.935 ± 0.013	0.975 ± 0.027	0.641 ± 0.063	0.448 ± 0.062	0.265 ± 0.026	0.235 ± 0.016	0.889 ± 0.03	0.932 ± 0.023	0.934 ± 0.027	0.907 ± 0.054	0.922 ± 0.031	0.941 ± 0.037	0.958 ± 0.058	0.987 ± 0.034
SUM44 BREAST	1.22 ± 0.37	1.27 ± 0.4	1.27 ± 0.33	1.23 ± 0.36	0.785 ± 0.24	0.63 ± 0.22	0.486 ± 0.13	0.495 ± 0.17	1.16 ± 0.26	1.19 ± 0.22	1.24 ± 0.23	1.33 ± 0.5	1.19 ± 0.21	1.32 ± 0.33	1.3 ± 0.28	1.3 ± 0.26
SIHA CERVIX	1.04 ± 0.11	1.07 ± 0.057	1.16 ± 0.099	1.22 ± 0.092	0.81 ± 0.086	0.611 ± 0.077	0.377 ± 0.021	0.312 ± 0.026	0.992 ± 0.024	0.996 ± 0.072	0.99 ± 0.06	1.06 ± 0.076	1.02 ± 0.021	1.06 ± 0.039	0.968 ± 0.044	1.02 ± 0.028
VCAP PROSTATE	0.977 ± 0.06	1.08 ± 0.074	1.08 ± 0.15	0.926 ± 0.035	0.526 ± 0.029	0.401 ± 0.088	0.198 ± 0.046	0.169 ± 0.079	0.913 ± 0.1	1.09 ± 0.089	1.04 ± 0.13	1.04 ± 0.082	0.967 ± 0.051	1.1 ± 0.09	0.991 ± 0.039	1.08 ± 0.093
HUO3N1 BONE	0.9977 ± 0.0055	0.994 ± 0.022	1.02 ± 0.017	1.05 ± 0.036	1.17 ± 0.041	1.19 ± 0.034	0.663 ± 0.031	0.528 ± 0.014	0.981 ± 0.025	0.988 ± 0.045	1.029 ± 0.0051	1.04 ± 0.042	1.01 ± 0.039	1.06 ± 0.032	0.9827 ± 0.0083	1.02 ± 0.03
YAMATO SYNOVIAL	1.33 ± 0.091	1.25 ± 0.019	1.33 ± 0.085	1.31 ± 0.21	1.21 ± 0.11	0.805 ± 0.058	0.637 ± 0.041	0.492 ± 0.045	1.14 ± 0.05	1.16 ± 0.055	1.27 ± 0.13	1.35 ± 0.076	1.22 ± 0.083	1.4 ± 0.1	1.31 ± 0.12	1.38 ± 0.095
ASKA SYNOVIAL	1.11 ± 0.025	1.01 ± 0.02	1.08 ± 0.14	1.151 ± 0.011	0.946 ± 0.18	0.486 ± 0.08	0.33 ± 0.04	0.348 ± 0.019	1.03 ± 0.078	1.03 ± 0.066	1.12 ± 0.044	1.22 ± 0.12	1.14 ± 0.082	1.24 ± 0.02	1.15 ± 0.055	1.2 ± 0.058
MDAMB436 BREAST	0.946 ± 0.13	0.962 ± 0.082	0.961 ± 0.097	0.952 ± 0.13	0.555 ± 0.053	0.427 ± 0.037	0.272 ± 0.025	0.256 ± 0.016	0.976 ± 0.14	1.03 ± 0.15	0.997 ± 0.13	1.09 ± 0.17	0.936 ± 0.1	1.04 ± 0.14	1.03 ± 0.11	0.959 ± 0.051
H23 LUNG	0.992 ± 0.05	1.01 ± 0.053	1.07 ± 0.044	1.09 ± 0.049	1.18 ± 0.083	0.886 ± 0.073	0.14 ± 0.01	0.082 ± 0.004	0.987 ± 0.04	1.01 ± 0.031	1.01 ± 0.053	1.06 ± 0.044	0.997 ± 0.025	1.01 ± 0.022	0.966 ± 0.066	1.02 ± 0.051
COLO320DM LARGE INTESTINE	1.1 ± 0.026	1.21 ± 0.045	1.14 ± 0.12	1.15 ± 0.1	1.06 ± 0.043	0.996 ± 0.03	0.803 ± 0.11	0.693 ± 0.03	1.21 ± 0.13	1.1 ± 0.036	1.13 ± 0.055	1.17 ± 0.12	1.1 ± 0.035	1.142 ± 0.011	1.15 ± 0.014	1.06 ± 0.047
